Numbering of substitutions follows the chain as printed. In names and notes the source's numbering stands. Like-named read-outs stand apart in the source and are kept apart here. Marks after values point to notes of the source that are not given here. Some results are limits rather than exact numbers.

The test system of data set [1] is mouse MTX^rA leukemia transfectant harboring Glu45Lys RFC cDNA. Put plainly: Folate growth requirement in RFC transfectants. The class given is cell-based.
Description: (§2) Thereafter, cells were washed twice with serum-free folic acid-free medium, in order to eliminate GAT. […] Thereafter, cells were exposed continuously to various concentrations of leucovorin or folic acid for 72 hours, following which cell numbers were determined by hemocytometer count of viable cells, using trypan blue exclusion.
The test system of data set [2] is mouse MTX^rA leukemia transfectant harboring native RFC (Arg27) cDNA. Put plainly: Folate growth requirement in RFC transfectants. The class given is cell-based.
Description: as §2
For data set [3], the system named is mouse MTX^rA leukemia transfectant harboring His27/His56 RFC cDNA. Description: Folate growth requirement in RFC transfectants. The class given is cell-based.
Description: as §2
Data set [4] relates to mouse MTX^rA leukemia transfectant harboring His27 RFC cDNA. Description: Folate growth requirement in RFC transfectants. The class given is cell-based.
Description: as §2
The subject of data set [5] is mouse MTX^rA leukemia transfectant harboring Arg27/His56 RFC cDNA. Put plainly: Folate growth requirement in RFC transfectants. The class given is cell-based.
Description: as §2
In data set [6] the test system is parental human CEM leukemia cells (CEM/WT). Put plainly: Folate growth requirement. The class given is cell-based. Particulars: read-out: EC50, concentration necessary to support 50% of maximal growth, Table 6. An excerpt: (§1) Table 6 below summarizes the antifolate growth inhibition and folate growth requirement in parental human CEM leukemia cells and their GW70 subline.

Data set [7] deals with GW70 cells (GW1843U89-resistant CEM subline). Put plainly: Folate growth requirement. The class given is cell-based, human. The note with it: Homo sapiens, read-out: EC50, concentration necessary to support 50% of maximal growth; Table 6; column GW (GW70).
Source text: as §1

The test system is the same in data set [8]. Put plainly: Antifolate growth inhibition, 72 h drug exposure. The data set is classed as cell-based, human. The note with it: for sensitivity relative to parental CEM cells: lipid-soluble antifolates.
Data set [9] concerns parental human CEM leukemia cells (CEM/WT). Put plainly: Antifolate growth inhibition, 72 h drug exposure. The class given is cell-based.
The test system of data set [10] is GW70/LF cells. Description: Antifolate growth inhibition, 72 h drug exposure. The class given is cell-based. As for the experimental part:
The GW70 subline was established by stepwise exposure of parental CEM cells to gradually increasing concentrations of the potent thymidylate synthase inhibitor, GW1843U89 in normal growth medium; this selection was initiated at 1.5 nM and terminated at 70 nM GW1843U89, the cells were therefore termed GW70. GW70/LF cells were established by gradual deprivation of folic acid from the growth medium; this was terminated at a concentration of 5 nM folic acid.

Data set [11] concerns the target TS (Mus musculus, UniProt P07607). Particulars: Jackman, 1991; cited from earlier work.
Data set [12] addresses T1, RFC in GW70 cells (Homo sapiens, UniProt P41440, E45K/H27R/S46I/V29L).
T1 construct: endogenous in cells; host or cells: CEM-GW70 (GW1843U89-resistant CCRF-CEM subline)
T1 sequence (P41440 1-591 H27R/V29L/E45K/S46I): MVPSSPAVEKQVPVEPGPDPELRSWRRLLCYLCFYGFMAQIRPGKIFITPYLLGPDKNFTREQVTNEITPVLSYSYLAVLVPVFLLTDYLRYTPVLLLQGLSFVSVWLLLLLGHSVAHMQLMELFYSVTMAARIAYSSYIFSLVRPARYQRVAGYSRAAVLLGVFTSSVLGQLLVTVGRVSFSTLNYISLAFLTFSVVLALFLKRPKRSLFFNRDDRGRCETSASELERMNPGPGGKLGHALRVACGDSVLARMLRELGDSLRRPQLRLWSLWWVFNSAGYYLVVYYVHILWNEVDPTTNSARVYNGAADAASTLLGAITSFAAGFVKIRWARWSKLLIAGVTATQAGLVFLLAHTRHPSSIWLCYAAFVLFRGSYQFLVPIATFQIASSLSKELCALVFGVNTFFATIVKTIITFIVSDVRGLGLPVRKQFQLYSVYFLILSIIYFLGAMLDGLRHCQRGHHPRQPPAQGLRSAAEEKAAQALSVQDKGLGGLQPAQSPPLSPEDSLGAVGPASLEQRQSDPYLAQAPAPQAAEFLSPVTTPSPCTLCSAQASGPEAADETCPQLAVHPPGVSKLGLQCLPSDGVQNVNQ
Description: [3H]MTX and [3H]folic acid transport. The data set is classed as cell-based. Particulars: GW70 vs parental CEM. Here is the method: At selected transport time intervals, ranging from 0.5-30 minutes, uptake was terminated by the addition of 10 ml ice-cold HBSS, after which centrifugation and cell wash with another 10 ml ice-cold HBSS were performed. The final cell pellet was then counted for radioactivity.

Data set [13] has as its target T2, human RFC (Homo sapiens, UniProt P41440).
T2 sequence (P41440 1-591): T1 sequence (P41440 1-591 H27R/V29L/E45K/S46I) with R27H, L29V, K45E, I46S
The note with it: Westerhof et al., 1995; read-out: Ki as transport substrate; cited from earlier work.

Substrate in data set [14]: CN(Cc1cnc2nc(N)nc(N)c2n1)c1ccc(C(=O)N[C@@H](CCC(=O)O)C(=O)O)cc1
Description: cells, lysate or membranes. The note with it: other: CEM/GW70; influx, initial (3 min) uptake rates, Lineweaver-Burk; pH 7.4; 37.0 °C.

Substrate in data set [15]: Nc1nc2ncc(CNc3ccc(C(=O)N[C@@H](CCC(=O)O)C(=O)O)cc3)nc2c(=O)[nH]1
Put plainly: cells, lysate or membranes. The data set is classed as cell-based, human. Particulars: influx, initial (3 min) uptake rates, Lineweaver-Burk, pH 7.4, 37.0 °C.

Substrate in data set [16]: CN(Cc1cnc2nc(N)nc(N)c2n1)c1ccc(C(=O)N[C@@H](CCC(=O)O)C(=O)O)cc1
Description: cells, lysate or membranes. The data set is classed as cell-based, human. Particulars: other: CEM/GW70-LF; influx, initial (3 min) uptake rates, Lineweaver-Burk; pH 7.4; 37.0 °C.

The mark [17] stands for this setting: Mus musculus, read-out: EC50, concentration necessary to support 50% of maximal growth of control cells.
[18] abbreviates: Homo sapiens, Table 10, CEM/WT, 72 h drug exposure, read-out: IC50.
Setting [19] is: Homo sapiens, 72 h, Table 10, GW70/LF.
[20] abbreviates: Homo sapiens, 72 h, Table 10, GW70/LF grown in the presence of 2.3 µM folic acid.
Setting [21] is: Homo sapiens, 72 h, read-out: IC50, antifolate concentration that inhibits cell growth by 50%.
The mark [22] stands for this setting: Table 10, GW70, 72 h drug exposure, read-out: IC50.
Setting [23] is: Table 10, CEM/WT, 72 h drug exposure, read-out: IC50.
The mark [24] stands for this setting: Table 10, GW70/LF, read-out: IC50.

TS, sequence (P07607 whole entry): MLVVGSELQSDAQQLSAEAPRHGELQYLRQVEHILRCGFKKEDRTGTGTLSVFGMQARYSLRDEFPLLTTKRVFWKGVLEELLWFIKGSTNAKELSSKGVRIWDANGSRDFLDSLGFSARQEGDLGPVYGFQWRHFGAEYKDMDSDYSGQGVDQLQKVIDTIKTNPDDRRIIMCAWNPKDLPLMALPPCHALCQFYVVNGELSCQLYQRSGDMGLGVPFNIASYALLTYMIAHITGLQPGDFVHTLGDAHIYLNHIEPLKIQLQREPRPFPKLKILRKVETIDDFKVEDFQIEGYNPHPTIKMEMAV

Consider `Nc1nc2c(c(=O)[nH]1)N(C=O)C(CNc1ccc(C(=O)N[C@@H](CCC(=O)O)C(=O)O)cc1)CN2` (some centres unmarked) [Leucovorin, 5-formyltetrahydrofolate], for which the “MTX IC50/leucovorin EC50 ratio” value in data set [1] (Glu45Lys transfectant, in parentheses) was “(1.17)”; in data set [2] (Arg27 transfectant, in parentheses), “(1)^c”; in [3] (in parentheses) it was “(1.81)”; in data set [4] (in parentheses), “(0.97)”; in data set [5] (in parentheses), “(1.32)”. For the same molecule, the EC50 in data set [1] (setting [17]) amounted to 0.65 ± 0.15 nM; in [2] (Mus musculus, read-out: EC50, concentration necessary to support 50% of maximal growth of control cells, Arg27 (native RFC) transfectant), 0.76 ± 0.03 nM; in data set [3] (setting [17]) it was 0.42 ± 0.1 nM; in data set [4] (setting [17]), 0.78 ± 0.09 nM; in data set [5] (setting [17]), 0.7 ± 0.14 nM; in data set [6], 0.51 ± 0.08 nM. In data set [7], the EC50 amounted to 2.4 ± 1.1 nM.
`Nc1nc2[nH]cc(CCc3ccc(C(=O)N[C@@H](CCC(=O)O)C(=O)O)cc3)c2c(=O)[nH]1` [MTA]: the IC50 in data set [8] (Homo sapiens, 72 h) amounted to 351 ± 73 nM; in data set [9] (setting [18]) it was 23 ± 7 nM; in [10] (setting [19]), 4.6 ± 0.6 nM; in data set [10] (setting [20]), 221 ± 47 nM.
What is called Ki is the dissociation constant of the complex between target and ligand, obtained from inhibition or displacement. With `Cc1nc2ccc(CN(C)c3ccc(C(=O)N[C@@H](CCC(=O)O)C(=O)O)s3)cc2c(=O)[nH]1` [ZD1694], the Ki in data set [11] is 60 nM. Also, the IC50 in data set [8] (Homo sapiens, 72 h) amounted to 515 ± 224 nM; in [9] (setting [18]) it was 3.5 ± 0.6 nM; in data set [10] (Homo sapiens, 72 h, Table 10, GW70/LF grown in the presence of 2.3 µM folic acid, read-out: IC50), 389 ± 55 nM; in data set [10] (Homo sapiens, 72 h, Table 10, GW70/LF, read-out: IC50), 3.2 ± 0.5 nM.
For the molecule `Cc1nc2ccc3ccc(CNc4ccc5c(c4)CN([C@@H](CCC(=O)O)C(=O)O)C5=O)cc3c2c(=O)[nH]1` [GW1843], the “fold decreased affinity of RFC” value in [12] was determined as 6 fold. The “fold resistance / cross-resistance” value in data set [8] (GW70 vs parental CEM cells) came out at 100 fold. For the same molecule, the IC50 in data set [8] (Homo sapiens, 72 h) amounted to 123 ± 48 nM; in data set [8] (setting [21]), 172 ± 34.5 nM; in data set [9] (setting [21]), 1.8 ± 0.22 nM; in data set [9] (setting [18]), 2.4 ± 0.4 nM; in data set [10] (setting [19]), 2.5 ± 0.7 nM; in data set [10] (setting [20]), 7.5 ± 1.5 nM. For the same molecule, the inhibition constant Ki in [13] was 800 nM.
As for `CN1c2c(nc(N)[nH]c2=O)NCC1CNc1ccc(C(=O)N[C@@H](CCC(=O)O)C(=O)O)cc1` (some centres unmarked) [5-methyl-THF, 5-methyltetrahydrofolate], the “fold increased affinity of RFC” value in data set [12] is given as 3 fold.
For the molecule `COc1cc(NCc2ccc3nc(N)nc(N)c3c2C)cc(OC)c1OC` [TMQ], the “sensitivity relative to parental CEM cells” value in data set [8] (GW70, listed as trimetraxate) is listed as “hypersensitive”; in data set [8] (GW70, listed as trimetrexate), “collaterally more sensitive than parental CEM cells”. Besides, the IC50 in [8] (Homo sapiens, 72 h) was found to be 7.2 ± 1.7 nM; in data set [9] (setting [18]) it was 7.5 ± 2.1 nM; in data set [10] (setting [19]), 1.1 ± 0.2 nM.
As to `C#CCN(Cc1cc2c(=O)[nH]c(C)nc2cc1C)c1ccc(C(=O)N[C@@H](CCc2nnn[nH]2)C(=O)O)c(F)c1` [ZD9331], the IC50 amounted to 479 ± 67 nM in data set [8] (Homo sapiens, 72 h); 16 ± 1 nM in data set [9] (Homo sapiens, 72 h); 25 ± 6 nM in [10] (setting [19]); 12 ± 4 nM in [10] (setting [20]).
`Nc1nc(N)c2nc(CNc3ccc(C(=O)N[C@@H](CCCNC(=O)c4ccccc4C(=O)O)C(=O)O)cc3)cnc2n1` [PT523]: the results for the IC50 in data set [8] (setting [22]), in data set [9] (setting [23]) and in [10] (setting [24]) were 81 ± 16 nM, 1.1 ± 0.3 nM and 1.4 ± 0.1 nM, respectively.
On to `Cc1ccc2nc(N)[nH]c(=O)c2c1Sc1ccncc1` [AG337], for which, in data set [8] (GW70), the “sensitivity relative to parental CEM cells” value was “collaterally more sensitive than parental CEM cells”. Besides, the IC50 in [8] (setting [22]) amounted to 974 ± 241 nM; in [9] (setting [23]), 1800 ± 340 nM; in data set [10] (Table 10, GW70/LF grown in the presence of 2.3 µM folic acid, read-out: IC50), 2220 ± 264 nM; in data set [10] (setting [24]), 920 ± 430 nM.
Regarding `Nc1nc2c(c(=O)[nH]1)CC(CCc1ccc(C(=O)N[C@@H](CCC(=O)O)C(=O)O)cc1)CN2` (some centres unmarked) [DDATHF, 5,10-dideazatetrahydrofolic acid], the IC50 in data set [8] (Homo sapiens, 72 h) was 360 ± 106 nM; in [9] (Homo sapiens, 72 h), 11 ± 4 nM; in data set [10] (setting [19]), 8.2 ± 1.7 nM; in data set [10] (setting [20]), greater than 10000 nM.

B1: RFC in GW70 cells (Homo sapiens; E45K/H27R/S46I/V29L) (protein)
chain: T1 sequence (P41440 1-591 H27R/V29L/E45K/S46I)
notes: endogenous in cells; host or cells: CEM-GW70 (GW1843U89-resistant CCRF-CEM subline)
By Km is commonly meant the substrate concentration at which the rate is half of its maximum. Regarding B1, the Km in [14] is 16 ± 3.9 µM; in [15] (other: CEM/GW70) it was 16.5 ± 3.4 µM.

B2: RFC in GW70/LF cells (Homo sapiens; D88H/E45K/H27R/S46I/V29L) (protein)
chain: T1 sequence (P41440 1-591 H27R/V29L/E45K/S46I) with D88H
notes: a prominent overproduction of the native ˜80 kDa and truncated 43 kDa RFC proteins; endogenous in cells; host or cells: GW70/LF (GW70 cells adapted to low folate; 5-fold RFC gene amplification)
Turning to B2, the Michaelis-Menten constant (Km) in data set [15] (other: CEM/GW70-LF) was 15.5 ± 2.5 µM; in [16] it was 17.1 ± 1.2 µM.

(Values after patent US20040101834A1, “Method of and kit for assessing responsiveness of cancer patients to antifolate chemotherapy” (priority 2001, published 2004).)
